Data: the supplement of paper PMC10307832

What follows are cell lines tested with C[C@@H](C(=O)N[C@@H](C1CCCCC1)C(=O)N2CCC[C@H]2C(=O)N[C@@H]3[C@@H](CC4=CC=CC=C34)OCC#CC#CCO[C@@H]5CC6=CC=CC=C6[C@@H]5NC(=O)[C@@H]7CCCN7C(=O)[C@H](C8CCCCC8)NC(=O)[C@H](C)NC)NC [AZD5582] + CC(C)C[C@H](NC(=O)[C@H](Cc1ccccc1)NC(=O)c1cnccn1)B(O)O [Bortezomib] (partner 0.002 µM) (assay: relative viability (nuclei count vs DMSO), 5 days (fraction); higher = more cells survive). Conditions: first compound 0.001581 µM.
How it was run: (§1)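 Lung cancer cell lines, seeded in 1536-well plates, were treated the following day by pin tool with a single drug or with five library-drug doses (not always all listed) in √10 steps on top of a fixed anchor-drug dose. Cells were fixed and nuclei stained in one step after 5 days, and nuclei were counted. Relative viability is the nuclei count for treated wells divided by that for vehicle wells, reported as medians of duplicate plates.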

In order of falling relative viability:
1. LU99A  1.24
2. HARA  1.09
3. LC-2-ad  1.05
4. EKVX  1.02
5. EMC-BAC-2  1.01
6. NCI-H1299  1.01
7. ChaGo-K-1  0.988
8. LXF-289  0.985
9. HCC-366  0.982
10. HCC-827  0.974
11. LCLC-103H  0.972
12. HCC-15  0.921
13. Calu-6  0.917
14. NCI-H2228  0.857
15. EPLC-272H  0.833
16. H3255  0.823
17. COR-L 105  0.768
18. NCI-H1563  0.765
19. HCC-44  0.711
20. IA-LM  0.704
21. HOP-62  0.652
22. LCLC-97TM1  0.542
23. LOU-NH91  0.45
24. EBC-1  0.434
25. HCC-78  0.367

Same assay, conditions: first compound 0.005 µM

In order of falling relative viability:
1. NCI-H2228  1.34
2. LU99A  1.32
3. 201T  1.16
4. LC-2-ad  1.14
5. LCLC-103H  1.14
6. HARA  1.11
7. HCC-366  1.1
8. NCI-H1299  1.08
9. HCC-827  1.05
10. EMC-BAC-2  1.04
11. LXF-289  1.03
12. COR-L23  1.02
13. EKVX  1.02
14. HCC-15  1.01
15. ChaGo-K-1  0.985
16. A-427  0.954
17. NCI-H1563  0.887
18. H3255  0.879
19. COR-L 105  0.877
20. BEN  0.87
21. Calu-6  0.813
22. CAL-12T  0.746
23. HCC-44  0.722
24. IA-LM  0.679
25. HCC-78  0.604
26. LCLC-97TM1  0.531
27. HOP-62  0.527
28. LOU-NH91  0.509
29. EPLC-272H  0.396
30. EBC-1  0.39
31. ABC-1  0.275

Same assay, conditions: first compound 0.01581 µM

In order of falling relative viability:
1. NCI-H2228  1.36
2. LU99A  1.09
3. 201T  1.07
4. COR-L23  1.07
5. HARA  1.06
6. NCI-H1299  1.04
7. EMC-BAC-2  1.02
8. HCC-366  1.01
9. Calu-6  0.988
10. LXF-289  0.987
11. LCLC-103H  0.958
12. A-427  0.938
13. LC-2-ad  0.938
14. EKVX  0.934
15. ChaGo-K-1  0.93
16. HCC-44  0.918
17. BEN  0.911
18. HCC-827  0.901
19. EPLC-272H  0.87
20. HCC-15  0.864
21. IA-LM  0.829
22. NCI-H1563  0.788
23. HOP-62  0.691
24. COR-L 105  0.69
25. EBC-1  0.528
26. LOU-NH91  0.489
27. LCLC-97TM1  0.455
28. CAL-12T  0.448
29. HCC-78  0.421
30. H3255  0.385
31. ABC-1  0.291

Same assay, conditions: first compound 0.05 µM

In order of rising relative viability:
1. ABC-1  0.261
2. EPLC-272H  0.277
3. LCLC-97TM1  0.298
4. EMC-BAC-2  0.354
5. EBC-1  0.389
6. NCI-H2228  0.439
7. LOU-NH91  0.443
8. HCC-78  0.479
9. Calu-6  0.551
10. H3255  0.552
11. HCC-44  0.553
12. HOP-62  0.566
13. EKVX  0.575
14. BEN  0.579
15. CAL-12T  0.668
16. IA-LM  0.74
17. COR-L 105  0.827
18. A-427  0.891
19. HCC-15  0.975
20. ChaGo-K-1  0.982
21. NCI-H1299  0.99
22. LCLC-103H  1
23. LC-2-ad  1.04
24. LXF-289  1.05
25. HARA  1.07
26. HCC-827  1.07
27. COR-L23  1.09
28. 201T  1.17
29. HCC-366  1.19
30. NCI-H1563  1.25
31. LU99A  1.46

What follows are cell lines tested with C[C@@H](C(=O)N[C@@H](C1CCCCC1)C(=O)N2CCC[C@H]2C(=O)N[C@@H]3[C@@H](CC4=CC=CC=C34)OCC#CC#CCO[C@@H]5CC6=CC=CC=C6[C@@H]5NC(=O)[C@@H]7CCCN7C(=O)[C@H](C8CCCCC8)NC(=O)[C@H](C)NC)NC [AZD5582] + CC(=O)Nc1cccc(-n2c(=O)n(C3CC3)c(=O)c3c(Nc4ccc(I)cc4F)n(C)c(=O)c(C)c32)c1 [Trametinib] (partner 0.02 µM) in the same assay as above. Conditions: first compound 0.001581 µM.
How it was run: as §1

In order of rising relative viability:
1. EPLC-272H  0.15
2. NCI-H358  0.156
3. LCLC-97TM1  0.203
4. EKVX  0.276
5. HCC-366  0.304
6. CAL-12T  0.31
7. HCC-15  0.328
8. NCI-H1648  0.38
9. HOP-62  0.407
10. COR-L 105  0.445
11. HARA  0.464
12. LK-2  0.466
13. COR-L23  0.485
14. HCC-827  0.538
15. A-427  0.568
16. LU99A  0.575
17. H3255  0.58
18. NCI-H522  0.628
19. LXF-289  0.641
20. LCLC-103H  0.702
21. HCC-78  0.735
22. EMC-BAC-2  0.757
23. LOU-NH91  0.772
24. 201T  0.786
25. HCC-44  0.883
26. BEN  0.893
27. ChaGo-K-1  0.897
28. LC-2-ad  0.92
29. NCI-H1395  0.961
